Measurements from patent publication US10011813B2, “Methane oxidation methods and compositions” (California Institute of Technology, priority 2015, dated 2018).
≈ marks a conversion by molar mass, not a printed value. Where “and” joins values, the source holds several entries; their conditions need not be identical. Equal entries are not always repeated.

Legend:
[1] = system: methane seep sediment (ANME archaea); assay: AOM rate measurement via 13C-methane (newly formed DIC) in methane seep sediment incubations; assay type: cell-based, ANME-2a and ANME-2c; conditions: for Rate relative to AOM with sulfate: 10 mM; for DIC formed: after 21-day incubation
Description: General description of methane oxidation measurements via ^13C-methane. Methane oxidation was quantified by determining the production of inorganic carbon (“CO2”). Accurate quantification of the concentration of inorganic carbon formed from methane oxidation is challenging due to 4 main reasons:
A defined amount of added DIC in artificial, buffered seawater was used with a low calcium concentration to prevent carbonate precipitation (see medium composition). As ^13CH4 was the only ^13C-enriched carbon source added, the newly formed ^13C-DIC must be derived from methane. For low methane oxidation rates (less than ca. 5% relative to sulfate as the oxidant or electron acceptor), however, enzyme-catalyzed isotope exchange between methane and DIC, needs to be taken into account, because it contributes to ^13C enrichment of the DIC without net methane oxidation, resulting in an overestimation of net methane oxidation. […] Details of both methods, the ^13CH4 experiments and the standard addition are described herein.
Incubation conditions for AOM rate measurement. Each incubation vial was set up with 1.0 cm^3 wet sediment (wet sediment=volume of sediment after allowing the sediment slurry settle for 48 h) in total slurry volume of […] as follows: Sterile serum vials were closed with butyl rubber stoppers (volume=12.9 ml after closing) and flushed with methane. 1.0 mL ^13CH4 (99% ^13C, Cambridge Isotope Laboratories, containing 0.05 vol % ^13CO2 as an impurity) was introduced anaerobically. 2.0 mL of artificial, anaerobic seawater containing 2.5× the target concentration of the corresponding electron acceptor was injected into the serum vial cooled on ice. For AQDS and 1,5-AQDS, this was a suspension corresponding to 25 mM (see TABLE 3).
The 1 L pyrex bottle with the sediment in the sulfate-free medium (1 part wet sediment in 3 parts of slurry volume) was vigorously shaken each time and 3.0 mL of slurry immediately removed and injected into the individual serum bottles. Each stoppered serum vial was supplemented with unlabeled methane (0.250 MPa overpressure: pressure gauge SSI Technologies, Inc., Media Gauge™) shaken and stored inverted at 4° C. (final headspace: 0.35 MPa methane, with ca. 4% ^13CH4). The exact fractional abundance of ^13C in the methane was quantified via ^1H-NMR spectroscopy for individual incubations.
AOM rate measurements (quantification of newly formed DIC based on ^13CH4). For ^13C-DIC analysis, 0.25 mL of the medium above the settled sediment in the microcosm was sampled with a disposable needle and syringe at each time point (same intervals for all experiments) and centrifuged (16000 rcf, 5 min). The supernatant was transferred into 0.6 mL eppendorf tubes, flash frozen in N2 (l), and stored at −20° C. until measurement. 150 μL of the thawed supernatant was then added to He-flushed vials containing 100 μL H3PO4 (85%). The resulting CO2 was analyzed for the isotopic enrichment (^13F(tn)) on a GC-IR-MS GasBench II (Thermo Scientific). The amount of DIC newly formed (Δ[DIC](tn), see FIG. 6B) was calculated from the measured ^13F (fractional abundance of ^13C), neglecting isotope effects on AOM according to Equation (1): Δ[DIC](tn)=[DIC](t0)*(^13F(tn)−^13F(t0))/(^13F(CH4)−^13F(tn)) (EQ. 1)

[2] = system: methane seep sediment (ANME archaea); assay: Quantification of reduced AQDS by iodometry in AOM incubations; assay type: cell-based, ANME-2a and ANME-2c; conditions: after 21-day incubation
Experimental: Quantification of reduced AQDS by iodometry. Reduced AQDS (2,6-AQH2DS) was quantified via iodimetric titration in the anaerobic chamber. A standard solution of ca. 20 mM KI3 was prepared as follows: iodine (254 mg, 2.0 mmol) and potassium iodide (1.66 g, 10 mmol) were dissolved in 100 mL DI water. After 2 days, the clear, dark solution was N2-sparged and brought into the anaerobic chamber. The exact concentration of the KI3 standard solution was quantified to be 19.5 mM via duplicate titration with sodium thiosulfate (exactly 101.5 mM, N2-sparged). Procedure for the quantification of reduced AQDS in the incubations: 1000 μL anaerobic assay solution centrifuged in the anaerobic chamber+200 μL anaerobic HEPES (1.0 M, pH=7.5)+KI3 standard solution as needed until color minimum, added in steps of 100 μL first, then in steps of 10 μL when closer to the equivalence point.

[3] = Quantification of AQDS solubility in the incubation medium; assay type: physicochemical
Experimental: Quantification of AQDS solubility in the incubation medium. Different regioisomers of AQDS (1,5-AQDS, 2,6-AQDS and 2,7-AQDS) were separately added to the modified artificial seawater described above, to a targeted final concentration of 25 mM. The suspensions were ultra-sonicated at room temperature to dissolve as much of the AQDS as possible. The tubes were kept at 4° C. or at 22.5° C. overnight. The tubes were centrifuged at 4° C. or 22.5° C. (16000 rcf, 30 min). The supernatant (300 μL) was mixed with 300 μL acetate (10.0 mM) as the internal standard and 100 μL deuterated water (99.9% D, Cambridge Isotope Laboratories) was added. The concentration of AQDS was obtained from integration of the ^1H-NMR spectra by comparison relative to the acetate standard.

SMILES: O=C1c2ccc(S(=O)(=O)O)cc2C(=O)c2ccc(S(=O)(=O)O)cc21 [AQDS, 9,10-anthraquinone-2,6-disulfonate]
- Rate relative to AOM with sulfate ([1]; no MoO4^2−): 74%
- Rate relative to AOM with sulfate ([1]; with 25 mM MoO4^2−): 83%
- DIC formed from 13C-methane per vial ([1]; 50 mmol AQDS (10 mM), no sulfate, 21-day incubation at 4° C.): approximately 12.5 mmol
- DIC formed ([1]; AQDS 10 mM + MoO4^2− 25 mM): 2.59 mM and 2.82 mM
- DIC formed ([1]; AQDS 10 mM, 4° C.): 2.39 mM and 2.64 mM
- initial rates of AOM compared with sulfate ([1]; first 6 days, 4° C.): equivalent
- AQH2DS (final concentration of reduced AQDS) ([2]; AQDS 10 mM + MoO4^2− 25 mM): 9.2 mM and 9.8 mM
- AQH2DS (final concentration of reduced AQDS) ([2]; AQDS 10 mM): 8.6 mM and 9.6 mM
- Solubility in the incubation medium ([3]; 4° C.): 900 µM (≈ 332 µg/mL)
- Solubility in the incubation medium ([3]; 22.5° C.): 1900 µM (≈ 700 µg/mL)
